Like-named read-outs stand apart in the source and are kept apart here.
Key:
[1] = target: recombinant protein Wee-1 (Homo sapiens (Human), UniProt P30291); test: HTRF assay for inhibiting enzymatic activity of recombinant protein Wee-1; type: biochemical; conditions: compounds up to 200 nM, read-out: (IC50) Inhibitory activity against recombinant protein Wee-1
Description: The inhibitory effect of the compounds on the enzyme activity of recombinant protein Wee-1 was determined by HTRF. The procedures are as follows:
After DMSO or serially diluted compounds (up to 200 nM, 1:5 diluted) and recombinant proteins were co-incubated in a kinase buffer at 37° C. for 30 min before Fluorescein-PolyGAT and ATP were added, and the reaction was initiated by addition of a substrate. After incubation at room temperature for 90 min, an antibody and a detection solution were added, and after further incubation at room temperature for 60 min, fluorescence values were detected (excitation wavelength: 340 nm, emission wavelengths: 495 and 520 nm). The 520 nm/495 nm fluorescence intensity ratio value was calculated, and compared with that of the DMSO group, and then the inhibition percentages and IC50 values of the compounds were calculated.

MIA PaCa-2 cells = test: In-vitro anti-proliferative activity in combination with gemcitabine on MIA PaCa-2 cells; type: cell-based; conditions: 72 h
Description: MIA PaCa-2 cells were seeded on a 384-well plate at 3000 cells/well, and 20 nM or 200 nM gemcitabine (GMC) was added. After overnight adherence culture, DMSO or the compounds serially 1:5-diluted from 100 nM were added. The viability was assessed 72 h after dosing by measuring the intracellular ATP content. The inhibition percentage of viable cells by the compounds was calculated by comparing with the DMSO group, and the IC50 value was calculated.

[2] = with 200 nM gemcitabine, read-out: in combination with 200 nM GMC IC50
[3] = with 20 nM gemcitabine, read-out: in combination with 20 nM GMC IC50

recombinant protein Wee-1, sequence (P30291 whole entry): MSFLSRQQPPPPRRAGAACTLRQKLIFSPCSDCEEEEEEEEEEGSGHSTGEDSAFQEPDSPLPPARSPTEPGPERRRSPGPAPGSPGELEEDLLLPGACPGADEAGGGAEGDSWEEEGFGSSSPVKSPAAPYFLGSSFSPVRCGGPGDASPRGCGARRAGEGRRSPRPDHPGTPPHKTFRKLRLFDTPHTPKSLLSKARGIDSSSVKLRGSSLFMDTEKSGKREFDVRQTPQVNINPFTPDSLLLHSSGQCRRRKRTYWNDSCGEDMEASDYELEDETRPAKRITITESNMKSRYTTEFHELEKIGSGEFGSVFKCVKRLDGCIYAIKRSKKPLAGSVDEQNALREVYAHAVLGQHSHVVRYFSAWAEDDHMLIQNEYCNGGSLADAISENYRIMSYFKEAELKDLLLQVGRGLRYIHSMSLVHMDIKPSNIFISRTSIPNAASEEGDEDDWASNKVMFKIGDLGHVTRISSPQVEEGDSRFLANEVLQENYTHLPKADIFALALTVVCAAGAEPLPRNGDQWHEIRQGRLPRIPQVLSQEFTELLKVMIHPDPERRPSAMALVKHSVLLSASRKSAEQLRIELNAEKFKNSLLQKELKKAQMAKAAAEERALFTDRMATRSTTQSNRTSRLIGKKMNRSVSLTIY

With `CN1CCc2ccc(Nc3ncc(C#N)c(N4CCc5c(N=S(C)(C)=O)cccc54)n3)cc2C1` [Compound 77] as the compound, how does the IC50 [1] read?
The IC50 was at most 10 nM.

What about the IC50 (MIA PaCa-2 cells; [2]) of the same compound?
Its IC50 is over 100 nM.

With `CN1CCc2c(CO)cc(Nc3ncc(C#N)c(Nc4cccc(N=S(C)(C)=O)n4)n3)cc2C1` [Compound 131] as the compound, how does the IC50 [1] read?
Its IC50 is at most 10 nM.

What about the IC50 (MIA PaCa-2 cells; [3]) of the same compound?
The IC50 was 6.7 nM.

`CN1CCc2c(cc(Nc3ncc(C#N)c(Nc4cccc(N=S(C)(C)=O)n4)n3)cc2-c2ccn(C)n2)C1` [Compound 113] was tested. Which IC50 [1] did it give?
The IC50 was at most 10 nM.

What about the IC50 (MIA PaCa-2 cells; [3]) of the same compound?
Its IC50 is 11.7 nM.

Which IC50 [1] does the source give for `C[C@@H]1CN(c2cc(Nc3ncc(C#N)c(Nc4cccc(N=S(C)(C)=O)n4)n3)cc3c2CCN(C)C3)C[C@@H](C)O1` [Compound 122] here?
The IC50 was at most 10 nM.

And the IC50 (MIA PaCa-2 cells; [3])?
Its IC50 is 49 nM.

For `CN(C)Cc1cc(Nc2ncc(C#N)c(Nc3cccc(N=S(C)(C)=O)n3)n2)cc2c1CCN(C)C2` [Compound 130], which IC50 [1] is on record?
Its IC50 is at most 10 nM.

And the IC50 (MIA PaCa-2 cells; [3])?
Its IC50 is 10 nM.

Which results are given for `COC1CCN(c2cc(Nc3ncc(C#N)c(Nc4cccc(N=S(C)(C)=O)n4)n3)cc3c2CCN(C)C3)CC1` [Compound 120]?
IC50 [1]: ≤ 10 nM; IC50 (MIA PaCa-2 cells; [3]): 4.5 nM

`CN1CCC(N2CCN(c3ccc(Nc4ncc(C#N)c(Nc5cccc(N=S(C)(C)=O)n5)n4)cc3)CC2)CC1` [Compound 62] was tested. Which IC50 [1] did it give?
Its IC50 is at most 10 nM.

What about the IC50 (MIA PaCa-2 cells; [3]) of the same compound?
Its IC50 is 12.5 nM.

With `C#Cc1cnc(Nc2ccc3c(c2)CN(C)CC3)nc1Nc1cccc(N=S(C)(C)=O)n1` [Compound 107] as the compound, how does the IC50 [1] read?
The IC50 was at most 10 nM.

And the IC50 (MIA PaCa-2 cells; [3])?
The IC50 was 26.6 nM.

With `CN1CCc2c(cc(Nc3ncc(C#N)c(Nc4cccc(N=S(C)(C)=O)n4)n3)cc2C(F)(F)F)C1` [Compound 20] as the compound, how does the IC50 [1] read?
Its IC50 is at most 10 nM.

And the IC50 (MIA PaCa-2 cells; [3])?
The IC50 was 25 nM.

What does the source list for `CN1CCc2c(cc(Nc3ncc(C#N)c(Nc4cccc(N=S(C)(C)=O)n4)n3)cc2CN2CCOCC2)C1` [Compound 121]?
IC50 [1]: ≤ 10 nM; IC50 (MIA PaCa-2 cells; [3]): 113 nM

What does the source list for `Cc1cc(Nc2ncc(C#N)c(Nc3cccc(N=S(C)(C)=O)n3)n2)cc2c1CCN(C)C2` [Compound 12]?
IC50 [1]: ≤ 10 nM; IC50 (MIA PaCa-2 cells; [3]): 1.4 nM

For `COC/C=C/c1cc(Nc2ncc(C#N)c(Nc3cccc(N=S(C)(C)=O)n3)n2)cc2c1CCN(C)C2` [Compound 129], which IC50 [1] is on record?
The IC50 was at most 10 nM.

What about the IC50 (MIA PaCa-2 cells; [3]) of the same compound?
The IC50 was 4.2 nM.

For `CN1CCc2c(cc(Nc3ncc(C#N)c(Nc4cccc(N=S(C)(C)=O)n4)n3)cc2-c2cc[nH]n2)C1` [Compound 112], which IC50 [1] is on record?
The IC50 was at most 10 nM.

And the IC50 (MIA PaCa-2 cells; [3])?
The IC50 was over 100 nM.

For `CN1CCc2ccc(Nc3ncc(C(=O)N(C)C)c(Nc4cccc(N=S(C)(C)=O)n4)n3)cc2C1` [Compound 8], which IC50 [1] is on record?
Its IC50 is over 50 nM.

And the IC50 (MIA PaCa-2 cells; [3])?
Its IC50 is over 100 nM.

How did the IC50 [1] turn out when `CN1CCN(c2cccc(Nc3ncc(C#N)c(Nc4cccc(N=S(C)(C)=O)n4)n3)c2)CC1` [Compound 63] was run?
The IC50 was at most 10 nM.

What about the IC50 (MIA PaCa-2 cells; [3]) of the same compound?
The IC50 was 18.4 nM.

With `C=Cc1cc(Nc2ncc(C#N)c(Nc3cccc(N=S(C)(C)=O)n3)n2)cc2c1CCN(C)C2` [Compound 42] as the compound, how does the IC50 [1] read?
The IC50 was at most 10 nM.

And the IC50 (MIA PaCa-2 cells; [2])?
Its IC50 is 10 nM.

For `CN(C)C1Cc2ccc(Nc3ncc(C#N)c(Nc4cccc(N=S(C)(C)=O)n4)n3)cc2C1` (centres unmarked) [Compound 60], which IC50 [1] is on record?
The IC50 was at most 10 nM.

And the IC50 (MIA PaCa-2 cells; [3])?
Its IC50 is 10.3 nM.

What does the source list for `CN1CCc2c(cc(Nc3ncc(C#N)c(Nc4cccc(N=S(C)(C)=O)n4)n3)cc2C2=CCCCC2)C1` [Compound 152]?
IC50 [1]: ≤ 10 nM; IC50 (MIA PaCa-2 cells; [3]): 3.8 nM

What does the source list for `CN1CCc2ccc(Nc3ncc(C#N)c(Oc4cccc(N=S(C)(C)=O)n4)n3)cc2C1` [Compound 106]?
IC50 [1]: ≤ 10 nM; IC50 (MIA PaCa-2 cells; [3]): > 100 nM

Which results are given for `CN1CCc2c(I)cc(Nc3ncc(C#N)c(Nc4cccc(N=S(C)(C)=O)n4)n3)cc2C1` [Compound 28]?
IC50 [1]: ≤ 10 nM; IC50 (MIA PaCa-2 cells; [3]): 14.5 nM

`C=C(C)c1cc(Nc2ncc(C#N)c(Nc3cccc(N=S(C)(C)=O)n3)n2)cc2c1CCN(C)C2` [Compound 15] was tested. Which IC50 [1] did it give?
The IC50 was at most 10 nM.

What about the IC50 (MIA PaCa-2 cells; [3]) of the same compound?
The IC50 was 1.8 nM.

How did the IC50 [1] turn out when `CN1CCc2c(cc(Nc3ncc(C#N)c(Nc4cccc(N=S(C)(C)=O)n4)n3)cc2-c2ccccc2)C1` [Compound 111] was run?
The IC50 was at most 10 nM.

And the IC50 (MIA PaCa-2 cells; [3])?
Its IC50 is 6.5 nM.

Which results are given for `CN1CCc2ccc(Nc3ncc(-c4ccco4)c(Nc4cccc(N=S(C)(C)=O)n4)n3)cc2C1` [Compound 9]?
IC50 [1]: > 50 nM; IC50 (MIA PaCa-2 cells; [3]): > 100 nM

Which IC50 [1] does the source give for `CNC(=O)c1cnc(Nc2ccc3c(c2)CN(C)CC3)nc1Nc1cccc(N=S(C)(C)=O)n1` [Compound 7] here?
Its IC50 is over 50 nM.

And the IC50 (MIA PaCa-2 cells; [3])?
The IC50 was over 100 nM.

Which IC50 [1] does the source give for `CN1CCc2ccc(Nc3nccc(Nc4cccc(N=S(C)(C)=O)n4)n3)cc2C1` [Compound 145] here?
The IC50 was over 50 nM.

And the IC50 (MIA PaCa-2 cells; [3])?
The IC50 was over 100 nM.

For `Cc1cc(Nc2ncc(C#N)c(Nc3cccc(N=S(C)(C)=O)n3)n2)ccc1N1CCN(C)CC1` [Compound 153], which IC50 [1] is on record?
The IC50 was at most 10 nM.

What about the IC50 (MIA PaCa-2 cells; [3]) of the same compound?
The IC50 was 3.5 nM.

What does the source list for `CN1CCc2ccc(Nc3ncc(C#N)c(Nc4cccc(N=S(C)(C)=O)c4)n3)cc2C1` [Compound 64]?
IC50 [1]: ≤ 10 nM; IC50 (MIA PaCa-2 cells; [3]): 34 nM

What does the source list for `CN1CCc2c(cc(Nc3ncc(C#N)c(Nc4cccc(N=S(C)(C)=O)n4)n3)cc2C2=CCCC2)C1` [Compound 17]?
IC50 [1]: ≤ 10 nM; IC50 (MIA PaCa-2 cells; [3]): 11 nM

From US20240158369A1, “PYRIMIDINE COMPOUND AS WEE-1 INHIBITOR” (WIGEN BIOMEDICINE TECHNOLOGY (SHANGHAI) CO., LTD., priority 2021, published 2024)
